From patent US9532956B2, “PH sensitive biodegradable polymeric particles for drug delivery” (Massachusetts Institute of Technology, priority 2009, dated 2017)

Tested on: Red blood cells (RBCs)
Conditions: pH 7.4
Procedure: The red blood cells (RBCs) were separated from the whole blood or anticoagulant solution by centrifuging the whole blood at 800 rcf for 15 min. The supernatant was discarded and the RBCs were washed thrice with phosphate buffered saline (PBS). The stock of RBCs was prepared by mixing three volumes of the centrifuged RBCs with 11 parts of the phosphate buffered saline (PBS) with pH adjusted to 7.4, 6.5, or 5.4, and 100 μL of this stock was used for 1 ml of the sample. RBCs were mixed with Triton X-100 (1%, w/v) (positive control); with phosphate buffered saline (PBS) with pH adjusted to 7.4, 6.5, or 5.4 (negative control); and respective concentrations of amines, PLH and protamine at different pH (7.4, 6.5, or 5.4). Samples were incubated at 37° C. for 24 h on a tube shaker. The samples were centrifuged at 800 rcf for 15 min to separate intact RBCs. The supernatant was collected and kept for 30 min at room temperature to oxidize hemoglobin (Hb) and then the absorbance of Oxy-Hb was measured spectrophotometrically at 540 nm. The relative hemolysis efficiency was calculated as the percentage of released hemoglobin by the samples to that by Triton X-100. The percent hemolysis was calculated using the equation of a straight line, y=mx+c, where % hemolysis (x)=[optical density (y)−negative control optical density (c)]/[(positive control optical density−negative control optical density)/100] […]

N[C@@H](Cc1c[nH]cn1)C(=O)N[C@@H](Cc1c[nH]cn1)C(=O)N[C@@H](Cc1c[nH]cn1)C(=O)N[C@@H](Cc1c[nH]cn1)C(=O)N[C@@H](Cc1c[nH]cn1)C(=O)N[C@@H](Cc1c[nH]cn1)C(=O)O [PLH, poly-L-histidine (PLH, 6-mer)]
% hemolysis versus pH: maximum hemolytic properties at endosomal pH 5.4

protamine
% hemolysis versus pH: more hemolytic properties at physiological pH 7.4
